Here are results for one molecule from US20250367332A1, “PSMA-TARGETED RADIOACTIVE METAL COMPLEX CONTAINING NITROAROMATIC HETEROCYCLIC GROUP AND PREPARATION METHOD” (BEIJING NORMAL UNIVERSITY, priority 2023, published 2025).

Each structure is given as a SMILES string.

In the test the test system is 22RV1-FOLH1-oe cells. Put plainly: In vitro cell uptake of 68Ga complexes over time in 22RV1-FOLH1-oe cells. The following applies: for uptake-time profile (course of cellular uptake with prolonged incubation time): 37 KBq, 37° C., 15-120 minutes. The class given is cell-based. How it is done: (§1) […] A 500 μL aliquot was added to each well of six 12-well plates. Each group of wells was treated with 37 KBq of [^68Ga]Ga-AAZTA-NI-PSMA, [^68Ga]Ga-AAZTA-NI-PSMA-11, and [^68Ga]Ga-HBED-CC-PSMA-11 solution. Incubation proceeded at 37° C. At 15, 30, 60, 90, and 120 minutes, uptake was terminated with PBS. Cells were lysed with 1 M NaOH, and lysates were absorbed onto filter paper for radioactivity measurement in plastic tubes. Blocking was performed at 60 minutes using excess unlabeled PSMA-11. After incubation, uptake was terminated with PBS, cells were lysed with 1 M NaOH, and lysates were absorbed onto filter paper for radioactivity measurement in plastic tubes.
(§2) 22RV1-FOLH1-oe cells were suspended at a density of 1.5×10^5 cells/mL. A 500 μL aliquot was added to each well of six 12-well plates. Each group of wells was treated with 37 KBq of [^68Ga]Ga-AAZTA-NI-PSMA, [^68Ga]Ga-DOTA-NI-PSMA, [^68Ga]Ga-HBED-CC-NI-PSMA, and [^68Ga]Ga-HBED-CC-PSMA-11 solution. Incubation proceeded at 37° C. At 15, 30, 60, 90, and 120 minutes, uptake was terminated with PBS. Cells were lysed with 1 M NaOH, and lysates were absorbed onto filter paper for radioactivity measurement in plastic tubes. Blocking was performed at 60 minutes using excess unlabeled PSMA-11. After incubation, uptake was terminated with PBS, cells were lysed with 1 M NaOH, and lysates were absorbed onto filter paper for radioactivity measurement in plastic tubes.
as §1, with “three” for “six”, “[^68Ga]Ga-AAZTA-NI-PSMA-093” for “[^68Ga]Ga-AAZTA-NI-PSMA, [^68Ga]Ga-AAZTA-NI-PSMA-11,”
as §2, with “2×10^5” for “1.5×10^5”, “the following solutions: [^68Ga]Ga-HBED-CC-PSMA-11, [^68Ga]Ga-NI-HBED-CC-PSMA-11, [^68Ga]Ga-HBED-CC-PSMA-093,” for “[^68Ga]Ga-AAZTA-NI-PSMA, [^68Ga]Ga-DOTA-NI-PSMA, [^68Ga]Ga-HBED-CC-NI-PSMA,”, “[^68Ga]Ga-NI-HBED-CC-PSMA-093.” for “[^68Ga]Ga-HBED-CC-PSMA-11 solution.”

Take `O=C([O-])CN(CCN(CC(=O)[O-])Cc1cc(CCC(=O)NCCCCCC(=O)NCCCC[C@H](NC(=O)N[C@@H](CCC(=O)O)C(=O)O)C(=O)O)ccc1[O-])Cc1cc(CCC(=O)O)ccc1[O-].[68Ga+3].[OH3+]` [[^68Ga]Ga-HBED-CC-PSMA-11]: the “uptake-time profile (course of cellular uptake with prolonged incubation time)” value is “initially increased and subsequently decreased” (Application Embodiment 1, 1×10^5 cells/mL, n=3 (FIG. 12)); “initially increased and subsequently decreased” (Application Embodiment 2, 1.5×10^5 cells/mL, n=3 (FIG. 14)); “initially increased and subsequently decreased” (Application Embodiment 3, 1×10^5 cells/mL, n=3 (FIG. 16)); “gradually increased” (Application Embodiment 4, 2×10^5 cells/mL, n=3 (FIG. 18)). The “cellular uptake compared with the other radioactive metal complexes” value (Application Embodiment 1, versus [^68Ga]Ga-AAZTA-NI-PSMA and [^68Ga]Ga-AAZTA-NI-PSMA-11, all time points) is on record as “significantly higher”.
